“And” between values parts separate entries of the source, which are not always exact repeats. Identical values can stand only once. Toxic doses and inconclusive results are not listed. Rule for the calls: active = survival T/C of 150% or more; inactive = T/C below 125% in these data.
Tested on: P388 leukemia ip, CD2F1 mice, survival T/C
Experiment: NCI In Vivo Anticancer Drug Screen. Data for tumor model P388 Leukemia (intraperitoneal) in CD2F1 (CDF1) mice
Details: endpoint: median survival time, higher = longer survival
Outline: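 Mice carrying the transplanted tumor received test compound or vehicle. Survival was recorded in each group, and the value is the treated-group measurement divided by that of the vehicle-treated control group.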

[1] = dose: 100.0 mg/kg/injection, schedule: Q04DX003 (ip), vehicle: saline with Tween-80
[2] = dose: 50.0 mg/kg/injection, schedule: Q01DX005 (ip), vehicle: Klucel (hydroxypropylcellulose) (HPC)
[3] = dose: 50.0 mg/kg/injection, schedule: Q01DX005 (ip), vehicle: saline with Tween-80
[4] = dose: 100.0 mg/kg/injection, schedule: Q01DX005 (ip), vehicle: saline with Tween-80
[5] = dose: 200.0 mg/kg/injection, schedule: Q01DX005 (ip), vehicle: saline with Tween-80

Measured: T/C

CCN(CCP(c1ccccc1)c1ccccc1)CCP(c1ccccc1)c1ccccc1
inactive: dose: 0.75 mg/kg/injection, schedule: Q04DX003 (ip), vehicle: saline with Tween-80 109 % of control | dose: 1.5 mg/kg/injection, schedule: Q04DX003 (ip), vehicle: saline with Tween-80 109 % of control | dose: 3.0 mg/kg/injection, schedule: Q04DX003 (ip), vehicle: saline with Tween-80 118 % of control | dose: 3.13 mg/kg/injection, schedule: Q04DX003 (ip), vehicle: saline with Tween-80 118 % of control | dose: 6.25 mg/kg/injection, schedule: Q04DX003 (ip), vehicle: saline with Tween-80 118 % of control | [1] 100 % of control and 87 % of control

COC(=O)C1=CCC[C@H]2C1(C)CCC(C)C21CC(c2ccoc2)OC1=O (some centres not stated)
inactive: dose: 3.5 mg/kg/injection, schedule: Q01DX005 (ip), vehicle: Klucel (hydroxypropylcellulose) (HPC) 106 % of control | dose: 7.0 mg/kg/injection, schedule: Q01DX005 (ip), vehicle: Klucel (hydroxypropylcellulose) (HPC) 91 % of control | dose: 14.0 mg/kg/injection, schedule: Q01DX005 (ip), vehicle: Klucel (hydroxypropylcellulose) (HPC) 95 % of control | dose: 28.0 mg/kg/injection, schedule: Q01DX005 (ip), vehicle: Klucel (hydroxypropylcellulose) (HPC) 91 % of control | [2] 92 % of control

CN=C(c1ccc(NC(=O)c2cccc(C(=O)Nc3ccc(C(=NC)N(C)C)cc3)c2)cc1)N(C)C
inactive: dose: 1.56 mg/kg/injection, schedule: Q01DX005 (ip), vehicle: saline 102 % of control | dose: 3.12 mg/kg/injection, schedule: Q01DX005 (ip), vehicle: saline 102 % of control | dose: 6.25 mg/kg/injection, schedule: Q01DX005 (ip), vehicle: saline 106 % of control and 96 % of control

Fc1ccc2nc3ccccc3c(SCCCCCCSc3c4ccccc4nc4ccc(F)cc34)c2c1
inactive: dose: 60.0 mg/kg/injection, schedule: Q01DX005 (ip), vehicle: Klucel (hydroxypropylcellulose) (HPC) 96 % of control | dose: 120.0 mg/kg/injection, schedule: Q01DX005 (ip), vehicle: Klucel (hydroxypropylcellulose) (HPC) 90 % of control

CC(=O)Nc1ccc(S(=O)(=O)Nc2cnccn2)cc1
inactive: dose: 100.0 mg/kg/injection, schedule: Q01DX001 (ip), vehicle: saline with Tween-80 93 % of control

Cc1nc(O)c(-c2ccc(Cl)cc2)c(=O)[nH]1
inactive: dose: 60.0 mg/kg/injection, schedule: Q01DX005 (ip), vehicle: saline with Tween-80 102 % of control | dose: 120.0 mg/kg/injection, schedule: Q01DX005 (ip), vehicle: saline with Tween-80 109 % of control

CC(C)Cn1c(Cl)c(/C=N\Nc2ccc([N+](=O)[O-])cc2)c2ccccc21
inactive: dose: 12.5 mg/kg/injection, schedule: Q01DX001 (ip), vehicle: saline 94 % of control | dose: 25.0 mg/kg/injection, schedule: Q01DX001 (ip), vehicle: saline 88 % of control | dose: 50.0 mg/kg/injection, schedule: Q01DX001 (ip), vehicle: saline 96 % of control

Nc1[nH]c(=O)nc2sc3ccccc3c12
inactive: [3] 102 % of control | [4] 105 % of control | [5] 102 % of control

CCC1(O)OC(=O)C(C)=C1C (configuration not stated)
inactive: dose: 12.5 mg/kg/injection, schedule: Q04DX003 (ip), vehicle: saline 98 % of control | dose: 25.0 mg/kg/injection, schedule: Q04DX003 (ip), vehicle: saline 95 % of control | dose: 50.0 mg/kg/injection, schedule: Q04DX003 (ip), vehicle: saline 99 % of control

[N-]=[N+]=Nc1ccc(NCCCCCC(=O)ON2C(=O)CCC2=O)c([N+](=O)[O-])c1
inactive: [3] 106 % of control | [4] 106 % of control | [5] 106 % of control

Cc1ccc(NC(=O)c2cc3ccccc3cc2O)c(C)c1.Cc1ccc(NC(=O)c2cc3ccccc3cc2[O-])c(C)c1.[Ni+2]
inactive: dose: 1.56 mg/kg/injection, schedule: Q01DX009 (ip), vehicle: saline with Tween-80 109 % of control | dose: 3.12 mg/kg/injection, schedule: Q01DX009 (ip), vehicle: saline with Tween-80 89 % of control | dose: 6.12 mg/kg/injection, schedule: Q01DX009 (ip), vehicle: saline with Tween-80 97 % of control | dose: 6.25 mg/kg/injection, schedule: Q01DX009 (ip), vehicle: saline 108 % of control

O=C1CCNN1c1ccccc1
inactive: dose: 12.5 mg/kg/injection, schedule: Q01DX009 (ip), vehicle: water 100 % of control | dose: 25.0 mg/kg/injection, schedule: Q01DX009 (ip), vehicle: water 103 % of control | dose: 50.0 mg/kg/injection, schedule: Q01DX009 (ip), vehicle: water 100 % of control | dose: 100.0 mg/kg/injection, schedule: Q01DX009 (ip), vehicle: water 103 % of control | dose: 200.0 mg/kg/injection, schedule: Q01DX009 (ip), vehicle: water 106 % of control

C=C(C)CN1C(=O)C(C)S/C1=N/N=C1/SCC(=O)N1C (configuration not stated)
inactive: dose: 62.5 mg/kg/injection, schedule: Q01DX009 (ip), vehicle: saline 99 % of control | dose: 125.0 mg/kg/injection, schedule: Q01DX009 (ip), vehicle: saline 98 % of control

CC(C)C=C1[C@H](O)CC[C@@H]1O
inactive: dose: 100.0 mg/kg/injection, schedule: Q04DX002 (ip), vehicle: saline 101 % of control | dose: 200.0 mg/kg/injection, schedule: Q04DX002 (ip), vehicle: saline 101 % of control | dose: 400.0 mg/kg/injection, schedule: Q04DX002 (ip), vehicle: saline 96 % of control

OC[C@@H](O)C[C@H](CO)Cc1ccc2c(c1)OCO2
inactive: dose: 50.0 mg/kg/injection, schedule: Q04DX002 (ip), vehicle: saline with Tween-80 96 % of control | dose: 100.0 mg/kg/injection, schedule: Q04DX002 (ip), vehicle: saline with Tween-80 87 % of control | dose: 200.0 mg/kg/injection, schedule: Q04DX002 (ip), vehicle: saline with Tween-80 99 % of control

CCCCCCCCCCCCCCCCCC(=O)O.[Co]
inactive: dose: 50.0 mg/kg/injection, schedule: Q01DX009 (ip), vehicle: saline with Tween-80 87 % of control and 95 % of control and 97 % of control | dose: 100.0 mg/kg/injection, schedule: Q01DX009 (ip), vehicle: saline with Tween-80 100 % of control and 103 % of control and 97 % of control | dose: 200.0 mg/kg/injection, schedule: Q01DX009 (ip), vehicle: saline with Tween-80 92 % of control

O=c1[nH]cc(O)c(=O)[nH]1
inactive: dose: 167.0 mg/kg/injection, schedule: Q01DX009 (ip), vehicle: saline with Tween-80 95 % of control | dose: 267.0 mg/kg/injection, schedule: Q01DX009 (ip), vehicle: saline with Tween-80 113 % of control | dose: 400.0 mg/kg/injection, schedule: Q01DX009 (ip), vehicle: saline with Tween-80 104 % of control | dose: 600.0 mg/kg/injection, schedule: Q01DX009 (ip), vehicle: saline with Tween-80 109 % of control

CCN(CC)Cc1c(C)nc2ccc(N(C)C)cc2c1Cl
inactive: dose: 12.5 mg/kg/injection, schedule: Q01DX009 (ip), vehicle: Klucel (hydroxypropylcellulose) (HPC) 115 % of control | dose: 25.0 mg/kg/injection, schedule: Q01DX009 (ip), vehicle: Klucel (hydroxypropylcellulose) (HPC) 110 % of control | dose: 50.0 mg/kg/injection, schedule: Q01DX009 (ip), vehicle: Klucel (hydroxypropylcellulose) (HPC) 100 % of control and 96 % of control

O=C1NC(=O)[C@@]2(CCOc3ccc(F)cc32)N1
inactive: [2] 95 % of control | dose: 100.0 mg/kg/injection, schedule: Q01DX005 (ip), vehicle: Klucel (hydroxypropylcellulose) (HPC) 100 % of control | dose: 200.0 mg/kg/injection, schedule: Q01DX005 (ip), vehicle: Klucel (hydroxypropylcellulose) (HPC) 100 % of control

COc1ccc(-c2cnc3c(N)nn(C)c3n2)cc1
inactive: [1] 90 % of control | dose: 200.0 mg/kg/injection, schedule: Q04DX003 (ip), vehicle: saline with Tween-80 100 % of control | dose: 400.0 mg/kg/injection, schedule: Q04DX003 (ip), vehicle: saline with Tween-80 105 % of control

Oc1ccc(O)c2c(O)c3ccccc3c(O)c12
inactive: [3] 102 % of control | [4] 107 % of control | [5] 93 % of control

Source: PubChem BioAssay AID330 (DTP/NCI, 2004)
